Measured values from patent US7285555B2, “6-aryl-7-halo-imidazo[1,2-a]pyrimidines as anticancer agents” (Wyeth Holdings Corporation, priority 2003, dated 2007).

Columns and labels:
KB cells [1] = experiment: MTS cytotoxicity test procedure with KB cells; assay type: cell-based; details: Homo sapiens, MTS assay, means of 2 independent experiments
From the text: (§1) Human cancer cell lines, unless otherwise noted, are obtained from the American Type Culture Collection (Rockville, Md.). […]
(§2) The MTS assay, which is sold in kit form by Promega (Madison, Wis.; CellTiter 96 AQueous Non-Radioactive Cell Proliferation Assay), is based on the conversion by viable cells, but not by dead cells, of the tetrazolium salt, MTS (3-(4,5-dimethylthiazol-2-yl)-5-(3-carboxymethoxyphenyl)-2-(4-sulphophenyl)-2H-tetrazolium, inner salt), into a water-soluble colored formazan which is detected by spectrophotometry. […] For the test procedure, cells are harvested by trypsinization (or, in the case of non-adherent cells, by simple resuspension), washed, counted and distributed to wells of 96-well flat-bottom microtiter plates at 1000 cells per well in 200 μL of medium. […]
(§3) After three days of culture with test compounds (day 5 overall), the MTS assay is done on all wells of the experimental plates. The absorbance values of the quadruplicate sample wells are averaged and divided by the average of the “time 0” values. […]

KB-8-5 cells = experiment: MTS cytotoxicity test procedure with KB-8-5 cells; assay type: cell-based, human; details: MTS assay
From the text: as §1, §2, §3

KB-V1 cells = experiment: MTS cytotoxicity test procedure with KB-V1 cells; assay type: cell-based, human; details: MTS assay
From the text: (§4) Human cancer cell lines, unless otherwise noted, are obtained from the American Type Culture Collection (Rockville, Md.). The following drug-sensitive parental cell lines, and their derived drug-resistant counterparts, are obtained from the originators as listed: (a) S1 (parental line from a subclone of human colon carcinoma line LS174T) and derived S1-M1-3.2 (herein called S1-M1) which expresses the MXR drug transporter protein, are provided by Dr. L. Greenberger, Wyeth Research (Rabindran, S. K., He, H., Singh, M., Brown, E., Collins, K. I., Annable, T., and Greenberger, L. M. Reversal of a novel multidrug resistance mechanism in human colon carcinoma cells by fumitremorgin C. Cancer Res., 58: 5850-5858,1998); (b) parental HL-60 human promyelocytic leukemia line and derived HL-60/ADR, which expresses the MRP1 drug transporter protein, are provided by Dr. M. Center, University of Kansas (McGrath, T., and Center, M. S. Adriamycin resistance in HL60 cells in the absence of detectable P-glycoprotein. Biochem. Biophys. […] J. Biol. Chem., 261: 7762-7770, 1986) via Dr. L. Greenberger, Wyeth Research.
The MTS assay, which is sold in kit form by Promega (Madison, Wis.; CellTiter 96 AQueous Non-Radioactive Cell Proliferation Assay), is based on the conversion by viable cells, but not by dead cells, of the tetrazolium salt, MTS (3-(4,5-dimethylthiazol-2-yl)-5-(3-carboxymethoxyphenyl)-2-(4-sulphophenyl)-2H-tetrazolium, inner salt), into a water-soluble colored formazan which is detected by spectrophotometry. Compounds are tested at nine concentrations, in order to determine IC50 values. For the test procedure, cells are harvested by trypsinization (or, in the case of non-adherent cells, by simple resuspension), washed, counted and distributed to wells of 96-well flat-bottom microtiter plates at 1000 cells per well in 200 μL of medium. […]
as §3

HL-60 cells = experiment: MTS cytotoxicity test procedure with HL-60 cells; assay type: cell-based; details: Homo sapiens, MTS assay, means of 2 independent experiments
From the text: as §1, §2, §3

S1 cells = experiment: MTS cytotoxicity test procedure with S1 cells; assay type: cell-based; details: Homo sapiens, MTS assay, means of 2 independent experiments
From the text: as §1, §2, §3

S1-M1 cells = experiment: MTS cytotoxicity test procedure with S1-M1 cells; assay type: cell-based, human; details: for Ratio: IC50 on S1-M1 cells/IC50 on S1 cells
From the text: as §4
The MTS assay, which is sold in kit form by Promega (Madison, Wis.; CellTiter 96 AQueous Non-Radioactive Cell Proliferation Assay), is based on the conversion by viable cells, but not by dead cells, of the tetrazolium salt, MTS (3-(4,5-dimethylthiazol-2-yl)-5-(3-carboxymethoxyphenyl)-2-(4-sulphophenyl)-2H-tetrazolium, inner salt), into a water-soluble colored formazan which is detected by spectrophotometry. Compounds are tested at nine concentrations, in order to determine IC50 values. For the test procedure, cells are harvested by trypsinization (or, in the case of non-adherent cells, by simple resuspension), washed, counted and distributed to wells of 96-well flat-bottom microtiter plates at 1000 cells per well in 200 μL of medium. In addition, one row of wells on a separate plate receives cells as above (“time 0” plate). All plates are incubated at 370 in humidified 5% CO2 in air for about 24 hr.
On day 2, compounds for test are diluted and added to wells. Compounds are dissolved in DMSO at 10 mg/mL. For each compound, nine serial 2-fold dilutions are prepared in DMSO. Ten μL of each dilution in DMSO is transferred to 100 μL of medium, mixed well, and then 5 μL of this dilution is transferred in quadruplicate to wells containing cells. […] Plates are returned to the incubator for three days. At the time of drug addition to the experimental plates, the MTS assay is run on the “time 0” plate.
as §3

KB cells [2] = experiment: SRB cytotoxicity test procedure with KB cells; assay type: cell-based; details: Homo sapiens, SRB assay, means of 2 independent experiments
From the text: as §1
The SRB standard cytotoxicity assay is done according to previously reported methods (Discafani, C. M., Carroll, M. L., Floyd Jr., M. B. F., Hollander, I. J., Husain, Z., Johnson, B. D., Kitchen, D., May, M. K., Malo, M. S., Minnick Jr., A. A., Nilakantan, R., Shen, R., Wang Y-F., Wissner, A., Greenberger, L. M. Irreversible inhibition of epidermal growth factor receptor tyrosine kinase with in vivo activity by N-[4-[3-bromophenyl)amino]-6-quinaxolinyl]-2-butynamide (CL-387,785). […] Absorbance is read on a Victor V multi-label plate reader (Perkin Elmer, Gaithersburg, Md.). […]

CN(C)CCCOc1cc(F)c(-c2c(Cl)nc3nccn3c2C2CCCCCC2)c(F)c1 [Example 6, 3-[4-(7-Chloro-5-cycloheptylimidazo[1,2-a]pyrimidin-6-yl)-3,5-difluorophenoxy]-N,N-dimethylpropan-1-amine]
IC50 (KB cells [1]): 44 nM | IC50 (KB-8-5 cells; Homo sapiens, KB 8.5 cells, means of 2 independent experiments): 63 nM | Ratio 8.5/KB (KB-8-5 cells; IC50 on KB 8.5 cells/IC50 on KB cells): 1.4 | IC50 (KB-V1 cells; Homo sapiens, KB-V1, KB VI cells, means of 2 independent experiments): 204 nM | Ratio VI/KB (KB-V1 cells; IC50 on KB VI cells/IC50 on KB cells): 4.6 | IC50 (HL-60 cells): 53 nM | IC50 (S1 cells): 63 nM | IC50 (S1-M1 cells; Homo sapiens, MTS assay, S1-M1 cells, means of 2 independent experiments): 68 nM | Ratio (S1-M1 cells): 1.1 | Ratio (S1-M1 cells; listed as example 6): no resistance

CC(=O)O[C@H]1C(=O)[C@@]2(C)[C@H]([C@H](OC(=O)c3ccccc3)[C@]3(O)C[C@H](OC(=O)[C@H](O)[C@@H](NC(=O)c4ccccc4)c4ccccc4)C(C)=C1C3(C)C)[C@]1(OC(C)=O)CO[C@@H]1C[C@@H]2O [Paclitaxel, reference compound]
IC50 (KB cells [2]): 2.2 nM
